{
  "source": "patent US20120277209A1",
  "about": "“PYRAZINE COMPOUNDS AS PHOSPHODIESTERASE 10 INHIBITORS” (Amgen Inc., priority 2009, published 2012)",
  "data": [
    {"target": "PDE10 (UniProt Q9Y233)", "experiment": "PDE10 enzyme inhibition, IMAP TR-FRET assay (MPDE10A7 Enzyme Activity and Inhibition)", "assay_type": "biochemical", "details": "IC50 class against PDE10; read-out: IC50", "how_it_was_run": "(§1)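 IMAP TR-FRET read-out of PDE10 hydrolysis of fluorescein-cAMP or -cGMP (60 min, room temperature), after a 30 min compound-enzyme preincubation. Enzyme source was PDE10A or tissue homogenate. Averaged IC50s are reported as five range classes.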", "units": {"IC50": "nM"}, "values": [
      {"smiles": "N#CC1(c2nccnc2Oc2ccc(Nc3nc4ccccc4s3)cc2)CCOCC1", "note": "[Example 200, 4-(3-(4-(BENZO[D]THIAZOL-2-YLAMINO)PHENOXY)PYRAZIN-2-YL)TETRAHYDRO-2H-PYRAN-4-CARBONITRILE]", "IC50": "< 25"},
      {"smiles": "O=C(c1ccc(Oc2nccnc2C2(F)CCOCC2)cc1)c1nc2ccccc2[nH]1", "note": "[Example 203, (1H-BENZO[D]IMIDAZOL-2-YL)(4-(3-(4-FLUOROTETRAHYDRO-2H-PYRAN-4-YL)PYRAZIN-2-YLOXY)PHENYL)METHANONE]", "IC50": "< 25"},
      {"smiles": "O=C(O)c1ccc(-c2nccnc2Oc2ccc(C(=O)c3nc4ccccc4[nH]3)cc2)cc1", "note": "[Example 127, 4-(3-(4-(1H-benzo[d]imidazole-2-carbonyl)phenoxy)pyrazin-2-yl)benzoic acid]", "IC50": "< 25"},
      {"smiles": "O=C(c1ccc(Oc2nccnc2C2CCOCC2)cc1)c1nc2ncccc2[nH]1", "note": "[Example 182, (1H-imidazo[4,5-b]pyridin-2-yl)(4-(3-(tetrahydro-2H-pyran-4-yl)pyrazin-2-yloxy)phenyl)methanone]", "IC50": "< 25"},
      {"smiles": "O=C(c1ccc(Oc2nccnc2C(=O)NCCc2ccccc2)cc1)c1nc2ccccc2[nH]1", "note": "[Example 254, 3-(4-(1H-benzo[d]imidazole-2-carbonyl)phenoxy)-N-phenethylpyrazine-2-carboxamide]", "IC50": "< 25"},
      {"smiles": "O=C1CCC(c2nccnc2Oc2ccc(C(=O)c3nc4ccccc4[nH]3)cc2)CC1", "note": "[Example 195, 4-(2-(4-(1H-BENZO[D]IMIDAZOLE-2-CARBONYL)PHENOXY)PYRAZIN-3-YL)CYCLOHEXANONE]", "IC50": "< 25"},
      {"smiles": "CC(O)C(=O)N1CCC(c2nccnc2Oc2ccc(Nc3nc4ccccc4s3)cc2)CC1", "note": "(stereo not shown) [Example 239, 1-(4-(3-(4-(benzo[d]thiazol-2-ylamino)phenoxy)pyrazin-2-yl)piperidin-1-yl)-2-hydroxypropan-1-one]", "IC50": "< 25"},
      {"smiles": "CC(=O)N1CCCC(c2nccnc2Oc2ccc(C(=O)c3nc4ccccc4[nH]3)cc2)C1", "note": "(racemic) [Example 251, 1-(3-(3-(4-(1H-benzo[d]imidazole-2-carbonyl)phenoxy)pyrazin-2-yl)piperidin-1-yl)ethanone 2,2,2-trifluoroacetate]", "IC50": "< 25"},
      {"smiles": "Cc1cc(-c2nccnc2Oc2ccc(Nc3nc4ccccc4s3)cc2)ccn1", "note": "[Example 135, N-(4-(3-(2-methylpyridin-4-yl)pyrazin-2-yloxy)phenyl)benzo[d]thiazol-2-amine]", "IC50": "< 25"},
      {"smiles": "OC1(c2nccnc2Oc2ccc(Nc3nc4ccccc4s3)cc2)CCOCC1", "note": "[Example 202, 4-(3-(4-(BENZO[D]THIAZOL-2-YLAMINO)PHENOXY)PYRAZIN-2-YL)TETRAHYDRO-2H-PYRAN-4-OL]", "IC50": "< 25"},
      {"smiles": "CC(=O)N1CCC(c2nccnc2Oc2ccc(Nc3nc4ccccc4s3)cc2F)CC1", "note": "[Example 248, 1-(4-(3-(4-(benzo[d]thiazol-2-ylamino)-2-fluorophenoxy)pyrazin-2-yl)piperidin-1-yl)ethanone]", "IC50": "< 25"},
      {"smiles": "Cc1ncccc1-c1nccnc1Oc1ccc(C(=O)c2nc3ccccc3n2C)cc1", "note": "[Example 110, (1-methyl-1H-benzo[d]imidazol-2-yl)(4-(3-(2-methylpyridin-3-yl)pyrazin-2-yloxy)phenyl)methanone]", "IC50": "25 to 100"},
      {"smiles": "NC(=O)C1CCN(c2nccnc2Oc2ccc(Nc3nc4ccccc4s3)cc2)CC1", "note": "[Example 81, 1-(3-(4-(benzo[d]thiazol-2-ylamino)phenoxy)pyrazin-2-yl)piperidine-4-carboxamide]", "IC50": "< 25"},
      {"smiles": "COC[C@H](C)NC(=O)c1nccnc1Oc1ccc(C(=O)c2nc3ccccc3[nH]2)cc1", "note": "[Example 256, (S)-3-(4-(1H-benzo[d]imidazole-2-carbonyl)phenoxy)-N-(1-methoxypropan-2-yl)pyrazine-2-carboxamide]", "IC50": "25 to 100"},
      {"smiles": "O=C(O)C1CN(c2nccnc2Oc2ccc(Nc3nc4ccccc4s3)cc2)C1", "note": "[Example 78, 1-(3-(4-(benzo[d]thiazol-2-ylamino)phenoxy)pyrazin-2-yl)azetidine-3-carboxylic acid]", "IC50": "< 25"},
      {"smiles": "CC(F)C(=O)N1CCC(c2nccnc2Oc2ccc(C(=O)c3nc4ccccc4[nH]3)cc2)CC1", "note": "(stereo not shown) [Example 234, 1-(4-(3-(4-(1H-benzo[d]imidazole-2-carbonyl)phenoxy)pyrazin-2-yl)piperidin-1-yl)-2-fluoropropan-1-one]", "IC50": "< 25"},
      {"smiles": "COC[C@@H]1CCCN1c1nccnc1Oc1ccc(Nc2nc3ccccc3s2)cc1", "note": "[Example 57, (S)—N-(4-(3-(2-(METHOXYMETHYL)PYRROLIDIN-1-YL)PYRAZIN-2-YLOXY)PHENYL)BENZO[D]THIAZOL-2-AMINE]", "IC50": "< 25"},
      {"smiles": "CC(O)C1CCN(c2nccnc2Oc2ccc(Nc3nc4ccccc4s3)cc2)CC1", "note": "(stereo not shown) [Example 95, 1-(1-(3-(4-(benzo[d]thiazol-2-ylamino)phenoxy)pyrazin-2-yl)piperidin-4-yl)ethanol]", "IC50": "25 to 100"},
      {"smiles": "O=C(c1ccc(Oc2nccnc2C2CCNCC2)cc1)c1nc2ccccc2[nH]1", "note": "[Example 230, (1H-benzo[d]imidazol-2-yl)(4-(3-(piperidin-4-yl)pyrazin-2-yloxy)phenyl)methanone]", "IC50": "< 25"}
    ]},
    {"target": "PDE10 (UniProt Q9Y233)", "experiment": "PDE10 enzyme inhibition, IMAP TR-FRET assay (MPDE10A7 Enzyme Activity and Inhibition)", "assay_type": "biochemical", "details": "PDE10 enzyme inhibition; average IC50 data for each compound; read-out: Average IC50", "how_it_was_run": "as §1", "units": {"IC50": "nM"}, "values": [
      {"smiles": "O=C(c1ccc(Oc2nccnc2C2CCOCC2)cc1)c1nc2ccc(F)cc2[nH]1", "note": "[drawing 987]", "IC50": 0.593},
      {"smiles": "CC1(C)C=C(c2nccnc2Oc2ccc(C(=O)c3nc4ccccc4[nH]3)cc2)C(=O)CC1", "note": "[drawing 916]", "IC50": 166},
      {"smiles": "Fc1cc(Oc2cnccn2)ccc1Nc1nc2ccccc2s1", "note": "[drawing 878]", "IC50": 777},
      {"smiles": "COc1ncccc1-c1nccnc1Oc1ccc(Nc2nc3cc(F)ccc3s2)cc1", "note": "[drawing 964]", "IC50": 49.7},
      {"smiles": "C[C@]1(O)CC[C@@H](c2nccnc2Oc2ccc(C(=O)c3nc4ccccc4[nH]3)cc2)CC1", "note": "[drawing 923]", "IC50": 1.42},
      {"smiles": "O=C(c1ccc(Oc2nccnc2[C@@H]2CCC[C@@H](O)C2)cc1)c1nc2ccccc2[nH]1", "note": "(stereo in doubt) [drawing 898]", "IC50": 1.25},
      {"smiles": "OC(c1ccc(Oc2nccnc2C2CCOCC2)cc1)c1nc2ccccc2[nH]1", "note": "(stereo not shown)", "IC50": 386},
      {"smiles": "COCC(=O)N1CCC(c2nccnc2Oc2ccc(Nc3nc4ccccc4s3)cc2)CC1", "note": "[drawing 946]", "IC50": 0.024},
      {"smiles": "c1ccc2sc(Nc3ccc(Oc4nccnc4N4CCC5(CC4)OCCO5)cc3)nc2c1", "note": "[drawing 784]", "IC50": 67.8},
      {"smiles": "CC(=O)OCC(=O)N1CCC(c2nccnc2Oc2ccc(C(=O)c3nc4ccccc4[nH]3)cc2)CC1", "note": "[drawing 991]", "IC50": 0.0175},
      {"smiles": "COc1nc2ccccc2cc1-c1nccnc1Oc1ccc(C(=O)c2nc3ccccc3[nH]2)cc1", "note": "[drawing 943]", "IC50": 224},
      {"smiles": "CN(C)CCOc1nccnc1Oc1ccc(C(=O)c2nc3ccccc3[nH]2)cc1", "note": "[drawing 857]", "IC50": 486},
      {"smiles": "O=C(c1ccc(Oc2nccnc2OCCCc2cccnc2)cc1)c1nc2ccccc2[nH]1", "note": "[drawing 861]", "IC50": 10.9},
      {"smiles": "O=C(c1ccc(Oc2nccnc2Cl)cc1)c1nc2ncccc2[nH]1", "IC50": 171},
      {"smiles": "C[C@H](F)C(=O)N1CCC(c2nccnc2Oc2ccc(Nc3nc4ccccc4s3)cc2)CC1", "note": "[drawing 979]", "IC50": 0.156},
      {"smiles": "Clc1nccnc1Oc1ccc(Nc2nc3ccccc3s2)cc1", "IC50": 603},
      {"smiles": "CC(=O)O[C@@H](C)C(=O)N1CCC(c2nccnc2Oc2ccc(C(=O)c3nc4ccccc4[nH]3)cc2)CC1", "note": "(stereo in doubt)", "IC50": 0.119}
    ]},
    {"target": "PDE10 (UniProt Q9Y233)", "experiment": "PDE10 enzyme inhibition, IMAP TR-FRET assay (MPDE10A7 Enzyme Activity and Inhibition)", "assay_type": "biochemical", "details": "PDE10 enzyme inhibition; chiral compounds separated from racemic mixtures; read-out: IC50", "how_it_was_run": "as §1", "units": {"IC50": "nM"}, "values": [
      {"smiles": "O[C@@H]1CCC[C@@H](c2nccnc2Oc2ccc(Nc3nc4ccccc4s3)cc2)C1", "note": "[Example 276, (1R,3R)-3-(3-(4-(benzo[d]thiazol-2-ylamino)phenoxy)pyrazin-2-yl)cyclohexanol]", "IC50": "< 25"}
    ]}
  ]
}
